The record followed here is US12642808B2, “Methods of inhibiting Klebsiella pneumoniae carbapenemase-2” (priority 2023, dated 2026).

A word on the MIC: it is the lowest concentration that inhibits growth of the organism.

The subject of assay [1] is KPC-74T. In words: Time sterilization (time-killing) curve. The class given is cell-based, Escherichia coli. The source says: (§1) KPC-74T, carrying Escherichia coli containing KPC-2 plasmid, constructed by the laboratory; Hvkp, obtained through laboratory isolation; AN2718 purchased from Target Mol Technology Co., Ltd; BBLTM Mueller Hinton II Broth was purchased from BD Company in the United States; Meropenem was purchased from Meilun Biotechnology Co., Ltd; LB Broth was purchased from Qingdao High tech Industrial Park Haibo Biotechnology Co., Ltd; Enzyme marker (UV1900i, Shimadzu company);
Inoculate overnight cultured bacterial KPC-74T in a 1:10000 ratio onto MHB medium and incubate at 225 rpm at 37° C. for 2 hours (early exponential growth phase) or 5 hours (late exponential growth phase). After incubation, add the corresponding concentration of AN2718 or Meropenem solution and incubate it at 37° C. and 225 rpm. Set the time point to 0, 1, 3, 5, 7, and 24 hours. At each time point, absorb 100 μL bacterial solution, centrifuged at 10000 g rotating speed for 1 min, resuspended with PBS, diluted in ten fold gradient, and absorbed 10 μL of each gradient drops onto MHA plate. Place the plates in a 37° C. incubator for 24 hours and remove them. Count each plate and calculate the total bacterial count. Repeat the experiment three times.

Assay [2] has as its system Hvkp2 strain. The experiment in a line: Treatment of mice infected with Hvkp2 strain. The settings on record: monotherapy 16 mg/kg; for survival rate: after 24 hours of Hvkp2 infection, mice. The class given is in vivo, ICR mice. As to the method: The experiment was conducted on mice infected with Hvkp2 strain for treatment. A total of 35 male ICR mice of SPF grade at four weeks old were selected and divided into seven groups. The […] were set as the saline control group, AN2718 monotherapy group (16 mg/kg), Meropenem monotherapy group (16 mg/kg), AN2718/Meropenem combination group 1 (8 mg/kg+8 mg/kg), AN2718/Meropenem combination group 2 (8 mg/kg+16 mg/kg), AN2718/Meropenem combination group 3 (16 mg/kg+8 mg/kg) and AN2718/Meropenem combination group 4 ([…]), respectively. First, incubate Hvkp2 overnight at 37° C., activate it, and resuspend it with physiological saline. Adjust the bacterial concentration to approximately 1×10^6 CFU/mL, spare. […]. Inject saline or medication 1 hours after infection. After 12 hours, the second dose of medication was administered for treatment, with a total of five injections and a time interval of 12 hours between each injection. Observe and count the survival status of each group of mice during the experiment.
This experiment used SPSS 20.0 software to statistically process and analyze the data represented by (X±SD). Multiple comparisons and one-way ANOVA were used to analyze and compare the data of each group. (P<0.05 indicates a significant difference, and P<0.01 indicates a highly significant difference).

For assay [3], the system named is KPC-74T. In words: Chessboard minimum inhibitory concentration determination. As to conditions: for MIC: Escherichia coli; for MIC value decreased: combined use of the two drugs versus alone. The class given is cell-based, Escherichia coli.
From the text: as §1
This study referenced the standards of the Clinical and Laboratory Standards Institute (CLSI) in the United States and the laboratory's previous improvement methods and measured partial inhibitory concentrations through a chessboard test. Firstly, KPC-74T was activated, inoculated on Lysogeny broth, and cultured overnight at 37° C. Add 100 μL MHB medium to each well in a sterile 96 well plate; Then add AN2718 solution 100 μL to the first line and perform gradient dilution along the vertical axis. Then, add Meropenem solution to the first column and dilute it in a gradient along the abscissa. Finally, in addition to the negative control, add 100 μL of bacterial suspension ≈1×10^6 CFUs mL^−1. After completing the above operations, place the 96 well plate in a 37° C. constant temperature incubator and incubate for 18 hours. Observe the bacterial solution of each well under appropriate light, and observe the drug concentration corresponding to the complete absence of bacterial growth wells, which is MIC. Determine synergistic effects by calculating FIC. FIC can be calculated according to formula (1): […]
MICa is a separate MIC of compound a; MICab is the MIC of compound a combined with compound b; MICb is a separate MIC of compound b; MICba is the MIC of compound b combined with compound a; FICa is the FIC of compound a; FICb is the FIC of compound b. According to the standard definition, FICI≤0.5 is defined as synergy; 0.5<FICI≤1 is defined as an additive; […] is defined as no difference; FICI>4 is defined as an antagonistic effect.

The target in assay [4] is KPC-41 (Klebsiella pneumoniae, UniProt Q9F663). The experiment in a line: Enzyme activity determination (nitrocefin hydrolysis). Format: biochemical. As to conditions: read-out: semi-inhibitory concentration IC50 on KPC-41.
KPC-41, sequence (Q9F663 1-268, added parts left off, change not shown, form open): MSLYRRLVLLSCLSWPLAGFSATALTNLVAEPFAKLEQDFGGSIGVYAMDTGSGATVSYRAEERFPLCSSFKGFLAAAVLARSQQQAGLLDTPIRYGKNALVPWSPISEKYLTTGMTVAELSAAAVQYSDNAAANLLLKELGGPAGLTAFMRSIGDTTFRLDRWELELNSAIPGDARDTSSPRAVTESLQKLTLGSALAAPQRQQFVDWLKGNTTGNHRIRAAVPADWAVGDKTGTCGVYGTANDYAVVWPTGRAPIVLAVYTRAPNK
The target in assay [5] is KPC-93 (Klebsiella pneumoniae, UniProt Q9F663). Described as above. Format: biochemical. As to conditions: read-out: semi-inhibitory concentration IC50 for KPC-93.
KPC-93, sequence (Q9F663 25-293 limits assumed): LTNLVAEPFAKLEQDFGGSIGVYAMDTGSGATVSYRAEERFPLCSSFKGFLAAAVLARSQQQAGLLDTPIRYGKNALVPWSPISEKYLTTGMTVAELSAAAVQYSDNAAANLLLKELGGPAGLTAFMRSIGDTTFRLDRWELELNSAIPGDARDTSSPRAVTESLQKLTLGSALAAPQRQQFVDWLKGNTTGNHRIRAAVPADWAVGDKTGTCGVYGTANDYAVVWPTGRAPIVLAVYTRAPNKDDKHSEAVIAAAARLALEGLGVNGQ
Assay [6] has as its target KPC-2 enzyme (Klebsiella pneumoniae, UniProt Q9F663). The description is as above. Format: biochemical. How it is done: Enzyme activity was measured using a Shimadzu UV-1900i spectrophotometer in 50 mM phosphate buffer (pH 7.0) to measure the inhibitory effect. The total enzyme activity reaction system is 500 μL. The reaction temperature was set to 37° C., and 0.3 nM KPC-2 enzyme was pre-incubated with different concentrations of AN2718 in phosphate buffer (pH 7.0) for 5 minutes before adding 60 μL nitrocefin. Measure the hydrolysis inhibition effect of AN2718 on nitrocefin by detect change of absorbance. The 50% inhibition concentration is determined by the inhibition curve of the control activity percentage and inhibitor concentration. Repeat the experiment three times.

Read-outs that look alike come from different tables or passages of the source.

KPC-2 enzyme, sequence (Q9F663 25-293 limits assumed): as above

As for `C[C@@H](O)[C@H]1C(=O)N2C(C(=O)O)=C(S[C@@H]3CN[C@H](C(=O)N(C)C)C3)[C@H](C)[C@H]12` [Meropenem], the “killing of bacteria within 24 h” value in assay [1] (Meropenem 4 μg/mL and 8 μg/mL with AN2718 40 μM) was “could not kill all bacteria”; in assay [1] (Meropenem 4 μg/mL with AN2718 80 μM), “can kill most of the bacteria”; in assay [1] (Meropenem 4 μg/mL with AN2718 160 μM), “can kill all bacteria”; in assay [1] (Meropenem 128 μg/mL with AN2718 20 μM), “all bacteria can be killed”; in assay [1] (Meropenem alone 128 μg/mL), “still cannot kill all bacteria”; in assay [1] (Meropenem remaining concentrations (above 4 μg/mL) with AN2718 80 μM) it was “can still kill all the bacteria”. For the same molecule, the “killing of bacteria within 24 h” value in assay [1] (Meropenem rest concentrations (above 8 μg/mL) with AN2718 40 μM) is recorded as “could still effectively kill bacteria”. For the same molecule, the “number of colonies versus control group” value in assay [1] (Meropenem alone 2 μg/mL˜64 μg/mL, at 24 hours) is given as “no significant difference”. For the same molecule, the “effect on the growth of KPC-74T” value is reported as “a certain inhibitory effect” in assay [1] (Meropenem alone 2 μg/mL˜64 μg/mL, first 5 hours) and “significant inhibitory effect” in assay [1] (Meropenem alone 128 μg/mL). Moreover, the survival rate in assay [2] was 20%. Also, the FICI in assay [3] (AN2718 in combination with Meropenem, KPC-74T) amounted to 0.25. Also, in assay [3] (AN2718 in combination with Meropenem, KPC-74T, from FICI), the Result result is “synergy (FICI≤0.5 is defined as synergy)”. Further, the MIC in assay [3] (read-out: Drug S-MIC) stood at 64 µg/mL. In assay [3] (KPC-74T), the MIC value decreased was determined as 1024 times.
Consider `OB1OCc2cc(Cl)ccc21` [AN2718, 5-chloro-1,3-dihydro-1-hydroxy-2,1-benzoxaborole], for which the “effect on the growth of KPC-74T” value in assay [1] (AN2718 single use, up to 160 μM (26.88 μg/mL), within 24 hours) is reported as “has no effect on the growth of KPC-74T”. In addition, the IC50 came out at 370000 nM in assay [4], 116 nM in assay [5] and 499 nM in assay [6]. Besides, the survival rate in assay [2] is on record as 40%. Moreover, in assay [2] (between 36h and 132h, mice infected with Hvkp2), the “survival rate versus Meropenem group” value is reported as “significantly higher”. Also, in assay [3] (18 h, read-out: AN2718 S-MIC), the MIC stood at 13.4 µg/mL. Also, in assay [3] (KPC-74T), the MIC value decreased result is given as “four”.
